Laboratory results published in US20230212222A1 (ANYGEN CO., LTD., priority 2020, published 2023).
Square brackets hold non-standard residues; d marks the D form. Peptide text beside a SMILES is read from it. * marks the point of attachment. His(Trt) = N[C@@H](Cc1cn(C(c2ccccc2)(c2ccccc2)c2ccccc2)cn1)C(=O)O; dPhe(4-Br) = N[C@H](Cc1ccc(Br)cc1)C(=O)O; dPhe(4-Cl) = N[C@H](Cc1ccc(Cl)cc1)C(=O)O; dPhe(4-F) = N[C@H](Cc1ccc(F)cc1)C(=O)O; Palmitoyl = CCCCCCCCCCCCCCCC(=O)*; Lauroyl = CCCCCCCCCCCC(=O)*; Octanoyl = CCCCCCCC(=O)*

target: T1, GPR39 (Homo sapiens, UniProt O43194)
T1 sequence (O43194 1-453): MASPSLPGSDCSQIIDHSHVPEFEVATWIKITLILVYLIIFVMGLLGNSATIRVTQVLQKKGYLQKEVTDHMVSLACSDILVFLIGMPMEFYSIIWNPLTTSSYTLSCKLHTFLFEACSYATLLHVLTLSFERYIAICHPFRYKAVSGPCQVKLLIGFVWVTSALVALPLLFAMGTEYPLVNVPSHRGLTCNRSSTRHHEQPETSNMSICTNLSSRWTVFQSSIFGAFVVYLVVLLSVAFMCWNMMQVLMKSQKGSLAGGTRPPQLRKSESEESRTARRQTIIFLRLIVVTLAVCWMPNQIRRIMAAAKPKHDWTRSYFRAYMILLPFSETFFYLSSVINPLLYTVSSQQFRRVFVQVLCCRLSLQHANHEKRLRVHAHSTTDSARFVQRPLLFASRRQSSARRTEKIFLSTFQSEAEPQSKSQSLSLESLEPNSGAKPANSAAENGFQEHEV
Procedure: Specifically, the fibroblast cell line CV-1 (1×10^5 cells/ml, Korea Cell Line Bank) was cultured in a 96 well cell culture plate for 24 hours, and then treated with GPR39 inserted into adenovirus and SRE (serum response element) luciferase at 50 MOI (multiplicity of infection) and 25 MOI virus for 3 hours, respectively, and then cultured for 24 hours.

| SMILES | ECmax (-fold induction over basal) |
| --- | --- |
| CCCCCCCC(=O)NCCCC[C@H](NC(=O)[C@@H](N)Cc1cn(CCc2ccccc2)cn1)C(=O)N[C@@H](Cc1ccccc1)C(=O)N[C@@H](Cc1ccc(O)cc1)C(=O)O [HKFY-9, N6-octanoyl-N2-(Nt-phenethyl-L-histidyl)-L-lysyl-L-phenylalanyl-L-tyrosine] | 21 ± 2.52 -fold induction over basal |
| CCCCCCCC(=O)NCCCC[C@H](NC(=O)[C@@H](N)Cc1cn(Cc2cccc3ccccc23)cn1)C(=O)N[C@@H](Cc1ccccc1)C(=O)N[C@@H](Cc1ccc(O)cc1)C(=O)O [HKFY-10, N2-(Nt-(naphthalen-1-ylmethyl)-L-histidyl)-N6-octanoyl-L-lysyl-L-phenylalanyl-L-tyrosine] | 14 ± 2.12 -fold induction over basal |
| CCCCCCCC(=O)NCCCC[C@H](NC(=O)[C@@H](N)Cc1cn(CCC2CCCCC2)cn1)C(=O)N[C@@H](Cc1ccccc1)C(=O)N[C@@H](Cc1ccc(O)cc1)C(=O)O [HKFY-11, N2-(Nt-(2-cyclohexylethyl)-L-histidyl)-N6-octanoyl-L-lysyl-L-phenylalanyl-L-tyrosine] | 22 ± 2.2 -fold induction over basal |
| CCCCCCCC(=O)NCCCC[C@H](NC(=O)[C@@H](N)Cc1cn(CCc2ccccc2)cn1)C(=O)N[C@@H](Cc1ccccc1)C(=O)N[C@@H](Cc1ccc(O)cc1)C(=O)O [HKFY-19, N6-octanoyl-N2-(Nt-phenethyl-L-histidyl)-L-lysyl-L-phenylalanyl-L-tyrosine] | 18 ± 1.7 -fold induction over basal |
| CCCCCCCC(=O)NCCCC[C@H](NC(=O)[C@@H](N)Cc1cn(C(c2ccccc2)c2ccc(OC)cc2)cn1)C(=O)N[C@@H](Cc1ccccc1)C(=O)N[C@@H](Cc1ccc(O)cc1)C(=O)O (stereo partly drawn) [HKFY-20, N2-(Nt-((4-methoxyphenyl)(phenyl)methyl)-L-histidyl)-N6-octanoyl-L-lysyl-L-phenylalanyl-L-tyrosine] | 20.26 ± 2.7 -fold induction over basal |
| CCCCCCCC(=O)NCCCC[C@H](NC(=O)[C@@H](N)Cc1cn(C23CC4CC(CC(C4)C2)C3)cn1)C(=O)N[C@@H](Cc1ccccc1)C(=O)N[C@@H](Cc1ccc(O)cc1)C(=O)O [HKFY-23, N2-(Nt-(adamantan-1-yl)-L-histidyl)-N6-octanoyl-L-lysyl-L-phenylalanyl-L-tyrosine] | 15 ± 1.37 -fold induction over basal |
| CCCCCCCC(=O)NCCCC[C@H](NC(=O)[C@@H](N)Cc1cn(C(c2ccccc2)c2ccc(F)cc2F)cn1)C(=O)N[C@H](Cc1ccc(C)cc1)C(=O)N[C@@H](Cc1ccc(O)cc1)C(=O)O (stereo partly drawn) [HKFY-32, ((2R)-2-((2S)-2-((2S)-2-amino-3-(1-((2,4-difluorophenyl)(phenyl)methyl)-1H-imidazol-4-yl)propanamido)-6-octanamidohexanamido)-3-(p-tolyl)propanoyl)-L-tyrosine] | 21.5 ± 2.7 -fold induction over basal |
| CCCCCCCC(=O)NCCCC[C@H](NC(=O)[C@@H](N)Cc1cn(C(c2ccccc2)(c2ccccc2)c2ccccc2)cn1)C(=O)N[C@@H](Cc1ccccc1)C(=O)N[C@@H](Cc1ccc(O)cc1)C(=O)N[C@@H](CO)C(=O)N[C@@H](CC(=O)O)C(=O)N[C@@H](CCC(N)=O)C(=O)N[C@@H](CCC(N)=O)C(=O)N[C@@H](C)C(=O)N[C@@H](CCCNC(=N)N)C(=O)N[C@@H](Cc1ccccc1)C(N)=O [HKFY-38, (3S,6S,9S,12S,15S)-15-((S)-2-amino-3-(1-trityl-1H-imidazol-4-yl)propanamido)-12-benzyl-3-(((6S,9S,12S,15S)-1,18-diamino-6-(((S)-1-amino-1-oxo-3-phenylpropan-2-yl)carbamoyl)-12-(3-amino-3-oxopropyl)-1-imino-9-methyl-8,11,14,18-tetraoxo-2,7,10,13-tetraazaoctadecan-15-yl)carbamoyl)-9-(4-hydroxybenzyl)-6-(hydroxymethyl)-5,8,11,14,21-pentaoxo-4,7,10,13,20-pentaazaoctacosanoic acid] (H-[His(Trt)]K(Octanoyl)FYSDQQARF-NH2) | 16.5 ± 0.02 -fold induction over basal |
| CCCCCCCC(=O)NCCCC[C@H](NC(=O)[C@@H](N)Cc1cn(C(c2ccccc2)(c2ccccc2)c2ccccc2)cn1)C(=O)N[C@@H](Cc1ccccc1)C(=O)N[C@@H](Cc1ccc(O)cc1)C(=O)N[C@@H](Cc1c[nH]cn1)C(=O)N[C@@H](CCC(N)=O)C(=O)N[C@@H](CCC(N)=O)C(=O)N[C@@H](C)C(=O)N[C@@H](CCCNC(=N)N)C(=O)N[C@@H](Cc1ccccc1)C(N)=O [HKFY-42, (S)-2-((2S,5S,8S,11S)-2-((1H-imidazol-4-yl)methyl)-11-((S)-2-amino-3-(1-trityl-1H-imidazol-4-yl)propanamido)-8-benzyl-5-(4-hydroxybenzyl)-4,7,10,17-tetraoxo-3,6,9,16-tetraazatetracosanamido)-N1-((S)-5-amino-1-(((S)-1-(((S)-1-(((S)-1-amino-1-oxo-3-phenylpropan-2-yl)amino)-5-guanidino-1-oxopentan-2-yl)amino)-1-oxopropan-2-yl)amino)-1,5-dioxopentan-2-yl)pentanediamide] (H-[His(Trt)]K(Octanoyl)FYHQQARF-NH2) | 11.8 ± 0.02 -fold induction over basal |

Results, then the compound that gave them:

| ECmax (-fold induction over basal) | SMILES |
| --- | --- |
| 24.7 ± 2.6 -fold induction over basal | CCCCCCCC(=O)NCCCC[C@H](NC(=O)[C@@H](N)Cc1cn(C(c2ccccc2)(c2ccccc2)c2ccccc2)cn1)C(=O)N[C@H](Cc1ccc(Cl)cc1)C(=O)N[C@H](Cc1ccc(O)cc1)C(=O)O [HKFY-15, ((R)-2-((S)-2-((S)-2-amino-3-(1-trityl-1H-imidazol-4-yl)propanamido)-6-octanamidohexanamido)-3-(4-chlorophenyl)propanoyl)-D-tyrosine] (H-[His(Trt)]K(Octanoyl)[dPhe(4-Cl)][dY]-OH) |
| 18.3 ± 2.5 -fold induction over basal | CCCCCCCC(=O)NCCCC[C@H](NC(=O)[C@@H](N)Cc1cn([C@H](c2ccccc2)c2ccc(Cl)cc2)cn1)C(=O)N[C@@H](Cc1ccccc1)C(=O)N[C@@H](Cc1ccc(O)cc1)C(=O)O [HKFY-21, N2-(Nt-((R)-(4-chlorophenyl)(phenyl)methyl)-L-histidyl)-N6-octanoyl-L-lysyl-L-phenylalanyl-L-tyrosine] |
| 21.3 ± 1.8 -fold induction over basal | CCCCCCCC(=O)NCCCC[C@H](NC(=O)[C@@H](N)Cc1cn([C@H](c2ccccc2)c2ccc(C)cc2)cn1)C(=O)N[C@@H](Cc1ccccc1)C(=O)N[C@@H](Cc1ccc(O)cc1)C(=O)O [HKFY-22, N6-octanoyl-N2-(Nt-((R)-phenyl(p-tolyl)methyl)-L-histidyl)-L-lysyl-L-phenylalanyl-L-tyrosine] |
| 7.72 ± 0.57 -fold induction over basal | CCCCCCCCCCCC(=O)NCCCC[C@H](NC(=O)[C@@H](N)Cc1cn(C(c2ccccc2)(c2ccccc2)c2ccccc2)cn1)C(=O)N[C@@H](Cc1ccccc1)C(=O)N[C@@H](Cc1ccc(O)cc1)C(=O)O [HKFY-25, N6-dodecanoyl-N2-(Nt-trityl-L-histidyl)-L-lysyl-L-phenylalanyl-L-tyrosine] (H-[His(Trt)]K(Lauroyl)FY-OH) |
| 20.4 ± 0.57 -fold induction over basal | CCCCCCCCCCCCCCCC(=O)NCCCC[C@H](NC(=O)[C@@H](N)Cc1cn(C(c2ccccc2)(c2ccccc2)c2ccccc2)cn1)C(=O)N[C@@H](Cc1ccccc1)C(=O)N[C@@H](Cc1ccc(O)cc1)C(=O)O [HKFY-27, N6-palmitoyl-N2-(Nt-trityl-L-histidyl)-L-lysyl-L-phenylalanyl-L-tyrosine] (H-[His(Trt)]K(Palmitoyl)FY-OH) |
| 22.95 ± 2.58 -fold induction over basal | CCCCCCCC(=O)NCCCC[C@H](NC(=O)[C@@H](N)Cc1cn(C(c2ccccc2)(c2ccccc2)c2ccccc2)cn1)C(=O)N[C@H](Cc1ccc(F)cc1)C(=O)N[C@@H](Cc1ccc(O)cc1)C(=O)O [HKFY-28, ((R)-2-((S)-2-((S)-2-amino-3-(1-trityl-1H-imidazol-4-yl)propanamido)-6-octanamidohexanamido)-3-(4-fluorophenyl)propanoyl)-L-tyrosine] (H-[His(Trt)]K(Octanoyl)[dPhe(4-F)]Y-OH) |
| 26.8 ± 1.87 -fold induction over basal | CCCCCCCC(=O)NCCCC[C@H](NC(=O)[C@@H](N)Cc1cn(C(c2ccccc2)(c2ccccc2)c2ccccc2)cn1)C(=O)N[C@H](Cc1ccc(Br)cc1)C(=O)N[C@@H](Cc1ccc(O)cc1)C(=O)O [HKFY-29, ((R)-2-((S)-2-((S)-2-amino-3-(1-trityl-1H-imidazol-4-yl)propanamido)-6-octanamidohexanamido)-3-(4-bromophenyl)propanoyl)-L-tyrosine] (H-[His(Trt)]K(Octanoyl)[dPhe(4-Br)]Y-OH) |
